Results from ChEMBL document CHEMBL1148021, “(Arylpiperazinyl)cyclohexylsufonamides: discovery of alpha(1a/1d)-selective adrenergic receptor antagonists for the treatment of Benign Prostatic Hyperplasia/Lower Urinary Tract Symptoms (BPH/LUTS)” (Bioorg Med Chem Lett, 2007).

Target: D(2) dopamine receptor (Homo sapiens, UniProt P14416)
Assay: Binding affinity to human dopamine D2 receptor

D(2) dopamine receptor, sequence (P14416 whole entry): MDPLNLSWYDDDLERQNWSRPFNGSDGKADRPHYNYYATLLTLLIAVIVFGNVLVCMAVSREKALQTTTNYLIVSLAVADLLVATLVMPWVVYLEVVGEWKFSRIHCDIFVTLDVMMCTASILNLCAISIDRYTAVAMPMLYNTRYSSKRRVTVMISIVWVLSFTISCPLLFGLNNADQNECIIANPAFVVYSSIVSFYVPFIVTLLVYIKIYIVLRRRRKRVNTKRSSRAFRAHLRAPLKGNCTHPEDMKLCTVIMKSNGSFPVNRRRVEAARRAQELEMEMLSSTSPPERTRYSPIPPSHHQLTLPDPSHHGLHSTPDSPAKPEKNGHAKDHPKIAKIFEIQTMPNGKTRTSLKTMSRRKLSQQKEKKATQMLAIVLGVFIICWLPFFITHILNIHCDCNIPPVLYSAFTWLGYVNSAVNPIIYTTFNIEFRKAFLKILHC

SMILES | Ki
CC(C)Oc1ccccc1N1CCN([C@H]2CC[C@@H](NS(=O)(=O)c3cccc(F)c3)CC2)CC1 | 74 nM
CC(C)Oc1ccccc1N1CCN([C@H]2CC[C@H](NS(=O)(=O)c3cccc(Cl)c3F)CC2)CC1 | 271 nM
CC(C)Oc1ccccc1N1CCN([C@H]2CC[C@H](NS(=O)(=O)c3ccc(OC(F)(F)F)cc3)CC2)CC1 | 58 nM
CC(C)Oc1ccccc1N1CCN([C@H]2CC[C@@H](NS(=O)(=O)c3ccc(Cl)cc3Cl)CC2)CC1 | 42 nM
CC(C)Oc1ccccc1N1CCN([C@H]2CC[C@@H](NS(=O)(=O)c3ccc(Cl)cc3F)CC2)CC1 | 130 nM
CC(C)Oc1ccccc1N1CCN([C@H]2CC[C@@H](NS(=O)(=O)c3cccc(C(F)(F)F)c3)CC2)CC1 | 118 nM
Cc1ccc(S(=O)(=O)N[C@H]2CC[C@H](N3CCN(c4ccccc4OC(C)C)CC3)CC2)cc1Cl | 52 nM
CC(C)Oc1ccccc1N1CCN([C@H]2CC[C@H](NS(=O)(=O)c3ccccc3C#N)CC2)CC1 | 2.4 nM
CC(C)Oc1ccccc1N1CCN([C@H]2CC[C@H](NS(=O)(=O)c3cnc(Cl)c(Br)c3)CC2)CC1 | 80 nM
CC(C)Oc1ccccc1N1CCN([C@H]2CC[C@H](NS(=O)(=O)c3cccc(C(F)(F)F)c3)CC2)CC1 | 39 nM
CC(C)Oc1ccccc1N1CCN([C@H]2CC[C@H](NS(=O)(=O)Cc3ccccc3)CC2)CC1 | 71 nM
CC(C)Oc1ccccc1N1CCN([C@H]2CC[C@H](NS(=O)(=O)c3ccccc3)CC2)CC1 | 34 nM
CC(C)Oc1ccccc1N1CCN([C@H]2CC[C@@H](NS(=O)(=O)c3cccnc3)CC2)CC1 | 15 nM
CC(C)Oc1ccccc1N1CCN([C@H]2CC[C@@H](NS(=O)(=O)c3ccc(S(C)(=O)=O)cc3)CC2)CC1 | 122 nM
CC(C)Oc1ccccc1N1CCN([C@H]2CC[C@@H](NS(=O)(=O)c3ccccc3C#N)CC2)CC1 | 55 nM
COc1ccncc1S(=O)(=O)N[C@H]1CC[C@@H](N2CCN(c3ccccc3OC(C)C)CC2)CC1 | 92 nM
COc1ccc(S(=O)(=O)N[C@H]2CC[C@@H](N3CCN(c4ccccc4OC(C)C)CC3)CC2)cc1OC (stereo in doubt; form 1) | 94 nM
CC(C)Oc1ccccc1N1CCN([C@H]2CC[C@H](NS(=O)(=O)c3ccc(Cl)cc3Cl)CC2)CC1 | 76 nM
CC(C)Oc1ccccc1N1CCN([C@H]2CC[C@@H](NS(=O)(=O)c3ccccc3)CC2)CC1 | 191 nM
COc1ccncc1S(=O)(=O)N[C@H]1CC[C@H](N2CCN(c3ccccc3OC(C)C)CC2)CC1 | 43 nM
CC(C)Oc1ccccc1N1CCN([C@H]2CC[C@H](NS(=O)(=O)c3cccnc3)CC2)CC1 | 55 nM
CC(C)Oc1ccccc1N1CCN([C@H]2CC[C@H](NS(=O)(=O)c3ccc(F)cc3)CC2)CC1 | 27 nM

Further lines, results first:

Ki | SMILES
37 nM | COc1ccc(Br)cc1S(=O)(=O)N[C@H]1CC[C@@H](N2CCN(c3ccccc3OC(C)C)CC2)CC1
86 nM | CC(C)Oc1ccccc1N1CCN([C@H]2CC[C@H](NS(=O)(=O)c3ccccc3[N+](=O)[O-])CC2)CC1
45 nM | COc1ccc([N+](=O)[O-])cc1S(=O)(=O)N[C@H]1CC[C@@H](N2CCN(c3ccccc3OC(C)C)CC2)CC1
50 nM | COc1ccc(C)cc1S(=O)(=O)N[C@H]1CC[C@H](N2CCN(c3ccccc3OC(C)C)CC2)CC1
173 nM | COc1ccc(F)cc1S(=O)(=O)N[C@H]1CC[C@@H](N2CCN(c3ccccc3OC(C)C)CC2)CC1
51 nM | CC(C)Oc1ccccc1N1CCN([C@H]2CC[C@@H](NS(=O)(=O)c3ccccc3[N+](=O)[O-])CC2)CC1
36 nM | COc1ccc(Br)cc1S(=O)(=O)N[C@H]1CC[C@H](N2CCN(c3ccccc3OC(C)C)CC2)CC1
62 nM | COc1ccc(OC)c(S(=O)(=O)N[C@H]2CC[C@H](N3CCN(c4ccccc4OC(C)C)CC3)CC2)c1
194 nM | COc1ccc(C(F)(F)F)cc1S(=O)(=O)N[C@H]1CC[C@@H](N2CCN(c3ccccc3OC(C)C)CC2)CC1
18 nM | COc1ccc([N+](=O)[O-])cc1S(=O)(=O)N[C@H]1CC[C@H](N2CCN(c3ccccc3OC(C)C)CC2)CC1
